According to ChEMBL document CHEMBL3091388, “New cytotoxic benzosuberene analogs. Synthesis, molecular modeling and biological evaluation” (Bioorg Med Chem Lett, 2013):

Assays:
CYP3A4 = CYP3A4 (Homo sapiens, UniProt P08684); experiment: Inhibition of CYP3A4 (unknown origin) at 3 uM; type: ADME
CYP2D6 = CYP2D6 (Homo sapiens, UniProt P10635); experiment: Inhibition of CYP2D6 (unknown origin) at 3 uM; type: ADME
CYP2C9 = CYP2C9 (Homo sapiens, UniProt P11712); experiment: Inhibition of CYP2C9 (unknown origin) at 3 uM; type: ADME
CYP1A2 = biological target: T1, CYP1A2 (Homo sapiens, UniProt P05177); experiment: Inhibition of CYP1A2 (unknown origin) at 3 uM; type: ADME
T1 sequence (P05177 whole entry): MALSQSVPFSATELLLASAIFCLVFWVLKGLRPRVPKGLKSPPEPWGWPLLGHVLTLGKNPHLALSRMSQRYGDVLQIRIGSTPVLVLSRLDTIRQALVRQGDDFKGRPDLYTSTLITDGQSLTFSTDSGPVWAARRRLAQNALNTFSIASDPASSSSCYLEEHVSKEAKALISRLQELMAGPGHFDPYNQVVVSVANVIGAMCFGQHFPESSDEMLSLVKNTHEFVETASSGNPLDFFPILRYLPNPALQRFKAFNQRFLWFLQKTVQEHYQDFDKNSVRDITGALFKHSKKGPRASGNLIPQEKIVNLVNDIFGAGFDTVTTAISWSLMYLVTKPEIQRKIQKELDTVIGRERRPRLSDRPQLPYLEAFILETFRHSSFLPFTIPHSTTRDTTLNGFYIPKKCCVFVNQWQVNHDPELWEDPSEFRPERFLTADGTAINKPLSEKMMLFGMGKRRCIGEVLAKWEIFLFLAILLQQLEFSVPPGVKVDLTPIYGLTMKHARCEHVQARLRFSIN

CYP2C8 = biological target: T2, CYP2C8 (Homo sapiens, UniProt P10632); experiment: Inhibition of CYP2C8 (unknown origin) at 3 uM; type: ADME
T2 sequence (P10632 whole entry): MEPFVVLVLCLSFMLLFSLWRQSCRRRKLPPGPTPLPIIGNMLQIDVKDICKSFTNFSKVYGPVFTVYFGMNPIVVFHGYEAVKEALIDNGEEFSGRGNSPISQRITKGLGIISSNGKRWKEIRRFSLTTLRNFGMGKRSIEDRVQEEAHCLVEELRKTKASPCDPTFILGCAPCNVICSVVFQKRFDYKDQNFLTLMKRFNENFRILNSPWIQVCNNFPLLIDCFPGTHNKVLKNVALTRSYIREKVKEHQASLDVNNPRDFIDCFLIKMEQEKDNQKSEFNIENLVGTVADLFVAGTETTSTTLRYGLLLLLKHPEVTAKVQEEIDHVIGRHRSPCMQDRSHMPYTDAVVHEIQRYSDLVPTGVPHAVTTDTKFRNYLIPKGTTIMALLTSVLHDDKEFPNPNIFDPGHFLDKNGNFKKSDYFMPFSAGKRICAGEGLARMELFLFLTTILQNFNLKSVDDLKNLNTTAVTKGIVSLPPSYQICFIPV

[1] = Apparent permeability from apical to basolateral side in RRCK cells; type: ADME, cell-based, Canis lupus familiaris, MDCKII-LE; details: dog, MDCK
[2] = Apparent intrinsic clearance in human liver microsomes at 1 uM; type: ADME; details: read-out: CLH(app)
HUVEC = experiment: Cytotoxicity against HUVEC assessed as cell viability after 4 days by MTS assay; type: cell-based; details: Homo sapiens, 96 h
MDA-MB-468 = experiment: Cytotoxicity against human MDA-MB-468 cells assessed as cell viability after 4 days by MTS assay; type: functional, cell-based; details: MDA-MB-468, 96 h
NCI-N87 = experiment: Cytotoxicity against human NCI-N87 cells assessed as cell viability after 4 days by MTS assay; type: functional, cell-based; details: NCI-N87, 96 h
BT-474 = experiment: Cytotoxicity against human BT474 cells assessed as cell viability after 4 days by MTS assay; type: functional, cell-based; details: BT-474, 96 h
MDR1 (ABCB1, P-gp) = MDR1 (ABCB1, P-gp) (Homo sapiens, UniProt P08183); experiment: Activity at MDR1 (unknown origin) expressed in MDCK cells assessed as efflux ratio of permeability at 2 uM; type: ADME, cell-based
MDR1 (ABCB1, P-gp), sequence (P08183 whole entry): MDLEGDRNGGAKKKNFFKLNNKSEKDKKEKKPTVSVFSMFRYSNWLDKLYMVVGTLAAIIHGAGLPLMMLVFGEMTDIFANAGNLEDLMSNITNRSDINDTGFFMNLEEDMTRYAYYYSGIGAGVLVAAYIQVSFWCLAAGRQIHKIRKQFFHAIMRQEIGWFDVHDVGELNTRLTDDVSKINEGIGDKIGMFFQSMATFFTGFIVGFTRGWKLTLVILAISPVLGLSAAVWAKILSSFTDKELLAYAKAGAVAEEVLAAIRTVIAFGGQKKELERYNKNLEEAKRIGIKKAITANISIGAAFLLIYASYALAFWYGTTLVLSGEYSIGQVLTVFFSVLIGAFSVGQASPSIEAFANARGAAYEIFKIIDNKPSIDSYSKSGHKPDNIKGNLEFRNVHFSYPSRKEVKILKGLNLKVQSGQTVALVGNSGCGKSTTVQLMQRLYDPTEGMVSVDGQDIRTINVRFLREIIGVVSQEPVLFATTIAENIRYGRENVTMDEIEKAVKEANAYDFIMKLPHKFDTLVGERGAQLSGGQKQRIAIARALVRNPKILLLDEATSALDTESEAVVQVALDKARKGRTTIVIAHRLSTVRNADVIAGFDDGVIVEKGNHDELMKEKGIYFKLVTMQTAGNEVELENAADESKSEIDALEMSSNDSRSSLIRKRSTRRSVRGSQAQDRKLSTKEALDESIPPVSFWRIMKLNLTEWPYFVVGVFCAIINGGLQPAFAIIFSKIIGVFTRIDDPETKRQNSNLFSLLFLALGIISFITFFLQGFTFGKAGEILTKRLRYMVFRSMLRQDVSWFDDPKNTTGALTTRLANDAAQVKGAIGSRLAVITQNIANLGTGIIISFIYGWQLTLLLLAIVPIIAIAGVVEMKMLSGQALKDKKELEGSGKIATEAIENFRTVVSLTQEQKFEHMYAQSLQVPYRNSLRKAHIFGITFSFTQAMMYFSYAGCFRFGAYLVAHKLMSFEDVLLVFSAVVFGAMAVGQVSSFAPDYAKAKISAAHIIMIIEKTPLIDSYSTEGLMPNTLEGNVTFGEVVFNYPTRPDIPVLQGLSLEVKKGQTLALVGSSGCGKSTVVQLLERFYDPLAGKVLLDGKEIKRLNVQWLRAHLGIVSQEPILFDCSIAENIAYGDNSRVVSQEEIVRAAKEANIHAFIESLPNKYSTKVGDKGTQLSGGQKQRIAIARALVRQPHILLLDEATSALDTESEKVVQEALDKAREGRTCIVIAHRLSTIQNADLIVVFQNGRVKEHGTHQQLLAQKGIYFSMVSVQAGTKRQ

CYP2C9, sequence (P11712 whole entry): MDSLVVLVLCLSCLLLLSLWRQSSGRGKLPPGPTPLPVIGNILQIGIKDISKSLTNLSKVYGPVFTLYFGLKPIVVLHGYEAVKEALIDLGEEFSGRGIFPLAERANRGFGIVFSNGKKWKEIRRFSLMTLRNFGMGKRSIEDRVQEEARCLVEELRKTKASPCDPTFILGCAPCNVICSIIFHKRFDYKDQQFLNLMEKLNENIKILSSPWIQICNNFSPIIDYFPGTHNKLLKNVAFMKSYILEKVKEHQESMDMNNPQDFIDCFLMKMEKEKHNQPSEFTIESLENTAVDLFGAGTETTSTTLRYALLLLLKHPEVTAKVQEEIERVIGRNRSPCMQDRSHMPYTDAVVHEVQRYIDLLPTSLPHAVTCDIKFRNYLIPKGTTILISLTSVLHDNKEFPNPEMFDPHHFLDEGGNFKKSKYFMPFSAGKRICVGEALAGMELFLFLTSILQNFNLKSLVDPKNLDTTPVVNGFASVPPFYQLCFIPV
CYP2D6, sequence (P10635 whole entry): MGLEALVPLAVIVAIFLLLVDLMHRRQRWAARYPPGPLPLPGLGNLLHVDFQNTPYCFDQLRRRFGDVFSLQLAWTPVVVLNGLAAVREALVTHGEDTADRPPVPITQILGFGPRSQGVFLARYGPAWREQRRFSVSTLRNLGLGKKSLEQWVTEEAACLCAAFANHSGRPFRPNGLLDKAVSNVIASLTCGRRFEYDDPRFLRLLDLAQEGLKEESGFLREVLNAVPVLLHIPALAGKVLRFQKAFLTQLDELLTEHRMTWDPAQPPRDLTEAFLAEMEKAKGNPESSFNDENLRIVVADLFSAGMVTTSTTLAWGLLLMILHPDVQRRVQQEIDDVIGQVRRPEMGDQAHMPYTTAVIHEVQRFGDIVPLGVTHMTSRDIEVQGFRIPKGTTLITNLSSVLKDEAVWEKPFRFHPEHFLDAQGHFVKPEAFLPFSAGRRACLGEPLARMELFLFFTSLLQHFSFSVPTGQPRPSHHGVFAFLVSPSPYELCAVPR
CYP3A4, sequence (P08684 whole entry): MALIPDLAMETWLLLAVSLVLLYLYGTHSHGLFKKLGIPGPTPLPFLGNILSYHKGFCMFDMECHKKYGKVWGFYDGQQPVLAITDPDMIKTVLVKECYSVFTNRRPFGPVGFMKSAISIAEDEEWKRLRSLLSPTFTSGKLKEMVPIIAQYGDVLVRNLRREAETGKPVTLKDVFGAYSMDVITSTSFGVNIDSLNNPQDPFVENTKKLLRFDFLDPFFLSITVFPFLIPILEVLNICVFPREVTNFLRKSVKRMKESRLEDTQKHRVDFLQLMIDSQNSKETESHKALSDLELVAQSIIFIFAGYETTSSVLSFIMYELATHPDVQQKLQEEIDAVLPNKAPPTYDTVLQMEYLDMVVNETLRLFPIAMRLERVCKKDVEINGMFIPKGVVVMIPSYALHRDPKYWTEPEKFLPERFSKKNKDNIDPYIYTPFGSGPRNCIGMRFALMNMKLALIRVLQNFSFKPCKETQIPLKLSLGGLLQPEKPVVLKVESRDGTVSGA

inhibition at 3 µM (CYP3A4) [%] | inhibition at 3 µM (CYP2D6) [%] | inhibition at 3 µM (CYP2C9) [%] | inhibition at 3 µM (CYP1A2) [%] | inhibition at 3 µM (CYP2C8) [%] | Papp A→B [1] [×10⁻⁶ cm/s] | microsomal CLint at 1 µM [2] [µL/min/mg] | efflux ratio at 2 µM (MDR1 (ABCB1, P-gp)) | SMILES | IC50 (HUVEC) [µM] | IC50 (MDA-MB-468) [µM] | IC50 (NCI-N87) [µM] | IC50 (BT-474) [µM]
25.3 | 0.9 | 23.7 | 1.5 | 50.5 | 16.6 | 239 | – | COc1ccc2c(c1O)CCCC(CCCC#N)=C2c1cc(OC)c(OC)c(OC)c1 | 0.7 | > 1 | 0.824 | 0.922
31.4 | 2.8 | 75.7 | 2.8 | 45.3 | 19.6 | > 320 | 1.2 | COc1ccc2c(c1O)CCCC(CCC#N)=C2c1cc(OC)c(OC)c(OC)c1 | 0.644 | 0.561 | 0.864 | 0.718
– | – | – | – | – | – | – | – | COc1ccc(/C=C\c2cc(OC)c(OC)c(OC)c2)cc1O [COMBRETASTATIN A4] | 0.0025 | 0.0011 | 0.0025 | 0.0039
– | – | – | – | – | – | – | – | COc1ccc2c(c1O)CCCC(CCC(N)=O)=C2c1cc(OC)c(OC)c(OC)c1 | 0.472 | > 1 | > 1 | > 1
– | – | – | – | – | – | – | – | COc1ccc2c(c1O)CCCC(CCN(C)C)=C2c1cc(OC)c(OC)c(OC)c1 | 0.251 | > 1 | > 1 | > 1
31.8 | 16 | 75 | 11.3 | 71.5 | 3.3 | 136 | 1 | CCC1=C(c2cc(OC)c(OC)c(OC)c2)c2ccc(OC)c(O)c2CCC1 | 0.193 | 0.304 | 0.335 | 0.355
3.7 | 0 | 6.1 | 0 | 35.4 | 16.1 | 66.3 | – | COc1ccc2c(c1O)CCCC(CC(O)CO)=C2c1cc(OC)c(OC)c(OC)c1 (racemic) | > 1 | 0.919 | > 1 | 0.99
– | – | – | – | – | – | – | – | COc1ccc2c(c1O)C[C@@H]1C=C[C@@]2(c2cc(OC)c(OC)c(OC)c2)O1 (racemic) | 0.016 | 0.0089 | 0.0156 | 0.0109
– | – | – | – | – | – | – | – | COc1ccc2c(c1O)CC=CC=C2c1cc(OC)c(OC)c(OC)c1 | 0.005 | 0.004 | 0.0056 | 0.0055
39.6 | 13.5 | 91.5 | 19.7 | 83.2 | 6.2 | 108 | 13.1 | COc1ccc2c(c1O)CCCC(C)=C2c1cc(OC)c(OC)c(OC)c1 | 0.0784 | 0.0446 | 0.203 | 0.0523
– | – | – | – | – | – | – | – | COc1ccc2c(c1O)CCCC(CCO)=C2c1cc(OC)c(OC)c(OC)c1 | 0.155 | 0.115 | 0.2 | 0.217
33.9 | 26.2 | 55.3 | 18.4 | 83.5 | – | 51.2 | – | COc1ccc2c(c1O)CCCC(Cc1ccccc1)=C2c1cc(OC)c(OC)c(OC)c1 | 0.961 | > 1 | > 1 | > 1

SMILES | inhibition at 3 µM (CYP3A4) [%] | inhibition at 3 µM (CYP2D6) [%] | inhibition at 3 µM (CYP2C9) [%] | inhibition at 3 µM (CYP1A2) [%] | inhibition at 3 µM (CYP2C8) [%] | Papp A→B [1] [×10⁻⁶ cm/s] | microsomal CLint at 1 µM [2] [µL/min/mg] | efflux ratio at 2 µM (MDR1 (ABCB1, P-gp)) | IC50 (HUVEC) [µM] | IC50 (MDA-MB-468) [µM] | IC50 (NCI-N87) [µM] | IC50 (BT-474) [µM]
COc1ccc2c(c1O)CCCC=C2c1cc(OC)c(OC)c(OC)c1 | 16.1 | 6.2 | 89.7 | 19 | 77.6 | – | 54.1 | – | 0.0046 | 0.0015 | 0.0038 | 0.0029
COc1cc2c(c(OC)c1OC)-c1ccc(OC)c(=O)cc1[C@@H](NC(C)=O)CC2 [COLCHICINE] | – | 7.7 | 11.1 | – | 20.4 | 0.76 | – | – | 0.0132 | 0.0021 | 0.0054 | 0.0038
